In ChEMBL document CHEMBL1287761, “The novel benzopyran class of selective cyclooxygenase-2 inhibitors-part I: the first clinical candidate” (Bioorg Med Chem Lett, 2010):
pIC50: −log10 of the molar value.

Experiments:
[1] = biological target: Prostaglandin G/H synthase 1 (Homo sapiens, UniProt P23219); experiment: Inhibition of human COX-1
[2] = biological target: T1, Prostaglandin G/H synthase 2 (Homo sapiens, UniProt P35354); experiment: Inhibition of human COX-2
T1 sequence (P35354 whole entry): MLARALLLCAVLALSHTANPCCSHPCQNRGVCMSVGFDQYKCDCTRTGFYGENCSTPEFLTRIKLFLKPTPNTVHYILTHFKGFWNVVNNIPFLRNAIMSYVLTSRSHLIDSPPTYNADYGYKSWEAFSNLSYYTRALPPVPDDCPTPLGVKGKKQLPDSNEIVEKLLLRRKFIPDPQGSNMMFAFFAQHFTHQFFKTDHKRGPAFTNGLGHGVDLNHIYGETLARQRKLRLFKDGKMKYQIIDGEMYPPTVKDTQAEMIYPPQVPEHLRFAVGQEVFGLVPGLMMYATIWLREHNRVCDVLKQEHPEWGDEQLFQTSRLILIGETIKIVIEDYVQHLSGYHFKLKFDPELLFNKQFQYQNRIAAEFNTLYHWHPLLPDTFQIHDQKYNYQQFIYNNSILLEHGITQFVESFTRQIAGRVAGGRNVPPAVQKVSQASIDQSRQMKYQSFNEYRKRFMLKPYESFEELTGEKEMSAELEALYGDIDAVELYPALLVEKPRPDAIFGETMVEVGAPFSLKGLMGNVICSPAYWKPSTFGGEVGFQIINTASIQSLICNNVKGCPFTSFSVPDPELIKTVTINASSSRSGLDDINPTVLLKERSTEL

[3] = biological target: COX-1/COX-2 (Homo sapiens) (UniProt P35354+P23219); experiment: Selectivity ratio of IC50 for human COX-1 to IC50 for human COX-2
Sequence of COX-1/COX-2 (Homo sapiens) (P23219 whole entry, looked up, one chain of several): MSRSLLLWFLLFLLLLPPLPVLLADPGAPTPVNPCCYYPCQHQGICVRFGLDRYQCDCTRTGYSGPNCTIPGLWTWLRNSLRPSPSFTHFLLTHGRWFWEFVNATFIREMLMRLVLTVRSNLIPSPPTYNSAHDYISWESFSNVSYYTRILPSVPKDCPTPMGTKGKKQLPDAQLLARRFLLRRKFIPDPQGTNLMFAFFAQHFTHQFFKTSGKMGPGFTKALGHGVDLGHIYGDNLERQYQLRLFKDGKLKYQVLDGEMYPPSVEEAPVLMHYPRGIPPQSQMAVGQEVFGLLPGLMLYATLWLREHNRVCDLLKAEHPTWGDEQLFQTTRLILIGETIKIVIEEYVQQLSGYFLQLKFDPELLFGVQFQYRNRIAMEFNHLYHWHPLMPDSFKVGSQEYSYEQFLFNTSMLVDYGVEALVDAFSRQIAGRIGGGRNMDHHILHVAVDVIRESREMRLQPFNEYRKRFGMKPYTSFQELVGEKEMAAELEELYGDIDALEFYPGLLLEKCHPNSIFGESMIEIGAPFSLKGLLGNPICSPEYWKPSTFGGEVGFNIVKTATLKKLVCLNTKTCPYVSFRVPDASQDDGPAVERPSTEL

Rattus norvegicus [4] = experiment: Analgesic activity against carrageenan-induced thermal hyperalgesia in Sprague-Dawley rat assessed as paw withdrawal latency administered 1 to 3 hrs after carrageenan challenge; assay type: functional
Rattus norvegicus [5] = organism: Rattus norvegicus; experiment: Antiinflammatory effect in complete Freund's adjuvant-induced Lewis rat arthritis model assessed as reduction in paw swelling by volume displacement plethysmometry; assay type: functional
Rattus norvegicus [6] = experiment: Antiinflammatory activity against carrageenan-induced inflammation in Sprague-Dawley rat air pouch model assessed as reduction in PGE2 level administered 3 hrs after carrageenan challenge; assay type: functional
[7] = Half life in dog; assay type: ADME, organism-based, Canis lupus familiaris; settings: in vivo
[8] = Half life in rat; assay type: ADME, organism-based; settings: in vivo
Rattus norvegicus [9] = experiment: Antiinflammatory activity against carrageenan-induced paw edema in Sprague-Dawley rat administered 1 to 3 hrs after carrageenan challenge; assay type: functional

Sequence of Prostaglandin G/H synthase 1 (P23219 whole entry): as the sequence (P23219 whole entry, looked up, one chain of several) above

pIC50 [1] | pIC50 [2] | Ratio IC50 [3] | Compound | other results
5.76 | 6.12 |  | NS(=O)(=O)c1ccc(-c2cc(Cl)cc3c2OC(C(F)(F)F)C(C(=O)O)=C3)cc1 (stereo not drawn) | 
5.51 | 6.96 |  | O=C(O)C1=Cc2cc(Cl)cc(-c3ccccc3)c2OC1C(F)(F)F (stereo not drawn) | 
5.57 | 7.37 | 63 | O=C(O)C1=Cc2cc(Cl)c(Cl)c(Cl)c2OC1C(F)(F)F (stereo not drawn) | 
3.84 | 4.92 | 12 | O=C(O)C1=Cc2c(Cl)cc(Cl)cc2OC1C(F)(F)F (stereo not drawn) | 
4.02 | 7.21 | 1520 | O=C(O)C1=Cc2cc(Cl)c(Cl)cc2OC1C(F)(F)F (stereo not drawn) | 
4.53 | 6.49 | 90 | O=C(O)C1=Cc2cc(Cl)ccc2OC1C(F)(F)F (stereo not drawn) | ED50 (Rattus norvegicus [4]): 6 mg/kg; ED50 (Rattus norvegicus [5]): 0.4 mg/kg; inhibition (INH) (Rattus norvegicus [6]): 98%
 |  |  | O=C(O)C1=Cc2cc(Cl)cc(Cl)c2O[C@@H]1C(F)(F)F | half-life [7]: 20.4 h; ED50 (Rattus norvegicus [4]): 2.6 mg/kg; half-life [8]: 10.1 h; ED50 (Rattus norvegicus [9]): 7.1 mg/kg; ED50 (Rattus norvegicus [5]): 0.03 mg/kg; ED50 (Rattus norvegicus [6]; Rattus norvegicus, Sprague-Dawley, 3 h): 0.54 mg/kg
6.06 | 8.22 | 136 | O=C(O)C1=Cc2c(cc(Cl)c(Cl)c2Cl)OC1C(F)(F)F (stereo not drawn) | 
4.96 | 7.00 | 110 | O=C(O)C1=Cc2c(Cl)ccc(Cl)c2OC1C(F)(F)F (stereo not drawn) | 
4.48 | 6.85 |  | O=C(O)C1=Cc2cc(Cl)cc(C#Cc3ccccc3)c2OC1C(F)(F)F (stereo not drawn) | 
6.85 | 7.74 |  | C=Cc1cc(Cl)cc2c1OC(C(F)(F)F)C(C(=O)O)=C2 (stereo not drawn) | 
 |  |  | Cc1ccc(-c2cc(C(F)(F)F)nn2-c2ccc(S(N)(=O)=O)cc2)cc1 [CELECOXIB] | ED50 (Rattus norvegicus [4]): 35 mg/kg; ED50 (Rattus norvegicus [5]): 0.3 mg/kg; inhibition (INH) (Rattus norvegicus [6]): 94%
3.52 | 3.52 | 1 | O=C(O)C1=Cc2ccc(Cl)c(Cl)c2OC1C(F)(F)F (stereo not drawn) | 
> 6.46 | 7.37 |  | C#Cc1cc(Cl)cc2c1OC(C(F)(F)F)C(C(=O)O)=C2 (stereo not drawn) | 
